The record followed here is patent US20230346817A1, “COMPOSITION AND USE OF SGLT-2 INHIBITOR AND ANGIOTENSIN RECEPTOR BLOCKERS” (Beijing Creatron Institute of Pharmaceutical Research Co. …, priority 2020, published 2023).

This series in a line: Related substances of active ingredient A, samples placed at 50° C. for 10 days. Particulars: mixed powders. Type of series: physicochemical. As for the experimental part: The raw and auxiliary materials were weighed based on the formulation amount and mixed well. The mixed powder of each example was wrapped separately in a clean weighing paper, sealed in an aluminum foil bag, and placed at 50° C. for 10 days. Samples were then taken, determined for related substances and compared with the comparative example.

On to `CCOc1ccc(Cc2cc([C@@H]3O[C@H](CO)[C@@H](O)[C@H](O)[C@H]3O)ccc2Cl)cc1` [active ingredient B, Dapagliflozin], for which the “Related substances of active ingredient B after placed under the influencing factor” value was “no increase in impurities”.
